Calls of active or inactive are those of the source. No cut-off for these calls is given here.
Tests used:
[1] = target: Prostaglandin G/H synthase 1 (Homo sapiens) (UniProt P23219); experiment: Inhibition of human COX1 from platelet microsomes
[2] = target: T1, Prostaglandin G/H synthase 2 (Homo sapiens, UniProt P35354); experiment: Inhibition of human recombinant COX2 expressed in baculovirus infected SF21 cell; type: cell-based
T1 sequence (P35354 whole entry): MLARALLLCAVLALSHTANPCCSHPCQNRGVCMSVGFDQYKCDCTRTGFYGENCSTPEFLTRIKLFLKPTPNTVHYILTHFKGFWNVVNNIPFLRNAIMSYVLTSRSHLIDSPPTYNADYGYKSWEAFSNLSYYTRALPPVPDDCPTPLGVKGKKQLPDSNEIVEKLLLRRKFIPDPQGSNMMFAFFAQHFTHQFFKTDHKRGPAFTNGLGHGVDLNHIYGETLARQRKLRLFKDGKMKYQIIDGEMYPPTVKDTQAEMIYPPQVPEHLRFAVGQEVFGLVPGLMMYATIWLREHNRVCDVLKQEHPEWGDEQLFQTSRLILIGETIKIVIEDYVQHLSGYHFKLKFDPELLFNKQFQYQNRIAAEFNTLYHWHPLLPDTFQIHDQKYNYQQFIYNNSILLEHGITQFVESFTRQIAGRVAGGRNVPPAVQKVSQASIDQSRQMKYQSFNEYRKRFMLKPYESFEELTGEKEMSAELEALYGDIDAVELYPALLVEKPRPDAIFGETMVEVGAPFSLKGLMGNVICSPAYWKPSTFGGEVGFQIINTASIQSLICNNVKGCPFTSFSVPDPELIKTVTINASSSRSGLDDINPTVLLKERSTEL

[3] = target: T2, Prostaglandin G/H synthase 2 (Homo sapiens) (UniProt P35354); experiment: Inhibition of human recombinant COX2 expressed in baculovirus infected SF21 cell at 25 uM
T2 sequence (whole entry): T1 sequence (P35354 whole entry)

[4] = target: T2, Prostaglandin G/H synthase 2 (Homo sapiens); experiment: Inhibition of human recombinant COX2 expressed in baculovirus infected SF21 cell at 100 uM

Prostaglandin G/H synthase 1 (Homo sapiens), sequence (P23219 whole entry): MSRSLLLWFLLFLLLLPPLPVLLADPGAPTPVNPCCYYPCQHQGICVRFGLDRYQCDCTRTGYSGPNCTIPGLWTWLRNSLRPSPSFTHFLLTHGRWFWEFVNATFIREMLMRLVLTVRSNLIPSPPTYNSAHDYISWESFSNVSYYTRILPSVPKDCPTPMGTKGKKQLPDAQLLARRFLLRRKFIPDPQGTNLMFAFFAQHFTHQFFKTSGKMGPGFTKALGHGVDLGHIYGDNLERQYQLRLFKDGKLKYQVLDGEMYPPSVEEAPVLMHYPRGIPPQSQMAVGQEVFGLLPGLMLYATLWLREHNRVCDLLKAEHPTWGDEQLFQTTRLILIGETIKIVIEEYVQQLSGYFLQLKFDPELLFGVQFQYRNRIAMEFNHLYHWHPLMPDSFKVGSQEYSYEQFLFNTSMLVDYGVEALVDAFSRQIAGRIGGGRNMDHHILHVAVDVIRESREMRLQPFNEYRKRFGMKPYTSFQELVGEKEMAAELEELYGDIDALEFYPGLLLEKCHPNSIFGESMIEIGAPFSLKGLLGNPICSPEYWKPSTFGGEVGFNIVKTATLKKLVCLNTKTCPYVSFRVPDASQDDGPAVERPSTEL

| inhibition [1] | IC50 [2] [µM] | inhibition [3] | inhibition [4] | Structure (SMILES) |
| --- | --- | --- | --- | --- |
| inactive | 31.9 | – | – | Cc1ccc(C2CC(c3ccc(S(C)(=O)=O)cc3)=NN2C(N)=S)cc1 (stereo unspecified) |
| inactive | – | inactive | – | CS(=O)(=O)c1ccc(C2=NN(C(N)=S)C(c3cccc(OCc4ccccc4)c3)C2)cc1 (stereo unspecified) |
| inactive | – | – | inactive | CC(=O)N1N=C(c2ccc(S(C)(=O)=O)cc2)CC1c1ccc(OCc2ccccc2)cc1 (stereo unspecified) |
| inactive | – | inactive | – | CS(=O)(=O)c1ccc(C2=NN(C(N)=S)C(c3ccc(C(F)(F)F)cc3)C2)cc1 (stereo unspecified) |
| inactive | 7.61 | – | – | COc1ccc(C2CC(c3ccc(S(C)(=O)=O)cc3)=NN2C(C)=O)cc1 (stereo unspecified) |
| inactive | – | – | inactive | CC(=O)N1N=C(c2ccc(S(C)(=O)=O)cc2)CC1c1cccc(OCc2ccccc2)c1 (stereo unspecified) |
| inactive | 3.2 | – | – | CC(=O)N1N=C(c2ccc(S(C)(=O)=O)cc2)CC1c1ccccc1OCc1ccccc1 (stereo unspecified) |
| inactive | – | inactive | – | CS(=O)(=O)c1ccc(C2=NN(C(N)=S)C(c3ccccc3OCc3ccccc3)C2)cc1 (stereo unspecified) |
| inactive | – | inactive | – | COc1ccc(C2CC(c3ccc(S(C)(=O)=O)cc3)=NN2C(N)=S)cc1 (stereo unspecified) |
| inactive | – | inactive | – | CS(=O)(=O)c1ccc(C2=NN(C(N)=S)C(c3ccc(OCc4ccccc4)cc3)C2)cc1 (stereo unspecified) |
| inactive | – | – | inactive | CS(=O)(=O)c1ccc(C2=NN(C(N)=S)C(c3ccc(F)cc3)C2)cc1 (stereo unspecified) |
| inactive | 6.77 | – | – | CC(=O)N1N=C(c2ccc(S(C)(=O)=O)cc2)CC1c1ccc(C)cc1 (stereo unspecified) |
| inactive | 19.8 | – | – | CC(=O)N1N=C(c2ccc(S(C)(=O)=O)cc2)CC1c1ccc(C(F)(F)F)cc1 (stereo unspecified) |
| inactive | 50.3 | – | – | CS(=O)(=O)c1ccc(C2=NN(C(N)=S)C(c3ccccc3)C2)cc1 (stereo unspecified) |
| inactive | 19.6 | – | – | CC(=O)N1N=C(c2ccc(S(C)(=O)=O)cc2)CC1c1ccc(F)cc1 (stereo unspecified) |
| inactive | 9.35 | – | – | CS(=O)(=O)c1ccc(C2=NN(C(N)=S)C(c3ccc(Cl)cc3)C2)cc1 (stereo unspecified) |
| inactive | – | – | inactive | CC(=O)N1N=C(c2ccc(S(C)(=O)=O)cc2)CC1c1ccccc1 (stereo unspecified) |
| inactive | 21.7 | – | – | CC(=O)N1N=C(c2ccc(S(C)(=O)=O)cc2)CC1c1ccc(Cl)cc1 (stereo unspecified) |

From ChEMBL document CHEMBL1629710, “Synthesis and biological evaluation of N-substituted-3,5-diphenyl-2-pyrazoline derivatives as cyclooxygenase (COX-2) inhibitors” (Eur J Med Chem, 2010)
